In PubChem BioAssay (NCI):
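Grown in 96-well plates, cells were treated for 48 hours with each compound at five concentrations. Insufficient inhibition: endpoint recorded as highest concentration tested. At the TGI there is no net growth.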

Assays:
Test in all cases: NCI anticancer screen, dose series, 48 h
[1] = test system: OVCAR-3 ovarian
[2] = test system: T-47D breast
[3] = test system: U251 CNS
[4] = test system: SK-OV-3 ovarian
[5] = test system: SNB-75 CNS
[6] = test system: CAKI-1 renal
[7] = test system: SK-MEL-28 melanoma
[8] = test system: TK-10 renal
[9] = test system: HCC-2998 colon
[10] = test system: SNB-19 CNS
[11] = test system: SF-539 CNS
[12] = test system: RPMI-8226 leukemia
[13] = test system: LOX IMVI melanoma
[14] = test system: SF-295 CNS
[15] = test system: UACC-257 melanoma
[16] = test system: SN12C renal
[17] = test system: IGROV1 ovarian
[18] = test system: 786-0 renal
[19] = test system: SF-268 CNS
[20] = test system: ACHN renal

Compound	TGI [1]	TGI [2]	TGI [3]	TGI [4]	TGI [5]	TGI [6]	TGI [7]	TGI [8]	TGI [9]	TGI [10]	TGI [11]	TGI [12]	TGI [13]	TGI [14]	TGI [15]	TGI [16]	TGI [17]	TGI [18]	TGI [19]	TGI [20]
Nc1nc(Cl)c2ncn(Cc3ccc(CCl)cc3)c2n1	5.5 µM	40.1 µM	12 µM	31.1 µM	90.2 µM	9.87 µM	44.4 µM	40.5 µM	8.95 µM	20 µM	9.89 µM	> 100 µM	43.9 µM	27.8 µM	47.9 µM	27.1 µM	22.9 µM	93.9 µM	8.38 µM	25.1 µM
O=C1CC(O)c2c(Br)sc(Br)c21 (stereo not given)	19.9 µM	30.5 µM	16.4 µM	30.3 µM	29.8 µM	4.24 µM	30.1 µM	13.3 µM	18 µM	34.9 µM	21.5 µM	11.8 µM	20.4 µM	32 µM	17.4 µM	34.2 µM	31.9 µM	14.8 µM	43.8 µM	29.7 µM
O=C1c2ccccc2C(=O)[C@@]23O[C@@]12C1(Oc2cccc4cccc(c24)O1)[C@@H]1O[C@@H]1[C@@H]3O	12.6 µM	29.8 µM	> 47.6 µM	28.6 µM	24 µM	24.5 µM	> 54.1 µM	15.9 µM	22 µM	28.8 µM	9.56 µM	> 23.1 µM	16.5 µM	26 µM	40.1 µM	26.1 µM	27.4 µM	11.6 µM	25.4 µM	27.7 µM
C=CCN1C(=O)/C(=C/c2ccc(OC)cc2)NC1=S	> 100 µM	> 100 µM	> 100 µM	> 100 µM	> 100 µM	> 100 µM	> 100 µM	> 100 µM	> 100 µM	> 100 µM	> 100 µM	> 100 µM	> 100 µM	> 100 µM	78.3 µM	> 100 µM	> 100 µM	> 100 µM	> 100 µM	> 100 µM
O=C(CCc1ccccc1)ON1C(=S)NC(c2ccccc2)(c2ccccc2)C1=S	> 100 µM	> 100 µM	> 100 µM	> 100 µM	> 100 µM	> 100 µM	> 100 µM	> 100 µM	> 100 µM	> 100 µM	> 100 µM	80.4 µM	52.8 µM	> 100 µM	> 100 µM	> 100 µM	82.7 µM	> 100 µM	> 100 µM	> 100 µM
Cc1ccc(NC(=O)CSc2nc(C)nc3c2sc(=S)n3-c2ccccc2)cc1	> 10 µM	> 10 µM	> 10 µM	> 10 µM	4.84 µM	> 10 µM	> 10 µM	> 10 µM	> 10 µM	> 10 µM	7.81 µM	> 10 µM	> 10 µM	> 10 µM	> 10 µM	> 10 µM	> 10 µM	6.92 µM	> 10 µM	> 10 µM
Cc1ccc(N=Nc2ccc(O)c(CN(C)C)c2)cc1C	> 100 µM	41.9 µM	> 100 µM	> 100 µM	> 100 µM	> 100 µM	44.7 µM	43.3 µM	32.7 µM	> 100 µM	44.1 µM	90.1 µM	76.2 µM	> 100 µM	58.9 µM	> 100 µM	84.3 µM	> 100 µM	> 100 µM	60.1 µM
COC(=O)c1sc2ncc3c(c2c1N)CCCCCC3	> 100 µM	> 100 µM	> 100 µM	> 100 µM	> 100 µM	> 100 µM	> 100 µM	> 100 µM	> 100 µM	> 100 µM	> 100 µM	> 100 µM	> 100 µM	> 100 µM	> 100 µM	> 100 µM	> 100 µM	> 100 µM	> 100 µM	> 100 µM
